Legend:
wild type KDM4A [1] = molecular target: T1, wild type KDM4A (Homo sapiens, UniProt O75164); experiment: Coupled fluorescence (FDH/NADH) assay, kinetic parameters with 2OG; type: biochemical; details: H3K9me3 demethylation, saturating peptide, 2OG as cofactor
T1 construct: human KDM4A-jmjC domain (catalytic domain of KDM4A); 6xHis (N); host or cells: E. coli BL21 (DE3)
T1 sequence (O75164 142-308 limits assumed): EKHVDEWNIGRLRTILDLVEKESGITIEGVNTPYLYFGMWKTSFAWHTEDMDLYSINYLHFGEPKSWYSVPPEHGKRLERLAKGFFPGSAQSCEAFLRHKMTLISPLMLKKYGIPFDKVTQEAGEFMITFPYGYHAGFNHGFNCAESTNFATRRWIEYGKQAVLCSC

KDM4A-F185A = molecular target: T2, KDM4A-F185A (Homo sapiens, UniProt O75164, F185A); experiment: MALDI-MS end-point demethylase assay on H3K9me3 peptide; type: biochemical
T2 construct: human KDM4A-jmjC domain (catalytic domain of KDM4A); 6xHis (N); host or cells: E. coli BL21 (DE3)
T2 sequence (O75164 142-308 F185A limits assumed): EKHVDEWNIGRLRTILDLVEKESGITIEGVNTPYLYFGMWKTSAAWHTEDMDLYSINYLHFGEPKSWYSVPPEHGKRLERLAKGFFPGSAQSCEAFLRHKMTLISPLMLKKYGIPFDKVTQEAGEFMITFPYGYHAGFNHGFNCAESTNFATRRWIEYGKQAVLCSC
From the text: To develop an appropriate inhibitor, we selected N-oxalyl glycine (NOG, 2) scaffold because of its structural similarity with 2OG and the ability to inhibit 2OG-utilizing enzymes including KDMs (Figure 1C).[29]−[31] Substituting −CH2– at C3 of 2OG with −NH– in NOG prevents its oxidative decarboxylation by KDMs, making the inhibitor cofactor-competitive. […] We synthesized a panel of eight NOG analogues (3–10), derived from L-amino acids, carrying varied steric substituents at C4, with the reasoning that a bulky substituent at C4 would selectively fit into the expanded pocket of F185A over wild type KDM4A (Figures 2B and S1–S6, Schemes S1 and S2). The inhibitory effect of each compound was determined based on the extent of enzyme-catalyzed demethylation of a canonical peptide substrate corresponding to the N-terminus of histone 3 carrying trimethylated lysine at position 9 (H3K9me3). […] Such orthogonal inhibition of the engineered demethylase constitutes a powerful chemical probe to study the functions of a specific member of an enzyme family without issues of off-target activity. […]
(§1) assay (Biorad) kit with BSA concentrations as a standard. […]
8. Demethylase activity of the wild type and mutant KDM4 proteins on peptide substrate To monitor enzymatic activity, a demethylase activity assay was optimized and then observed through MALDI-TOF.7 Each histone demethylase assay sample included either wild type or mutant enzyme (10µM KDM4A, 7.5µM KDM4C, 10µM KDM4D, or 1µM KDM4E), 10 µM peptide, 200 µM 2OG, 50 mM Tris pH 8, […], 0-200µM NOG analogue, and 2 mM L-ascorbic acid with a total assay volume of 10 µL. Fe(II) supplement and L-ascorbic acid […]
Lastly, the 2OG and peptide were […]
positive mode and analyzed on Bruker FlexAnalysis software. The percent demethylated peptide […]
(§2) the multiple demethylation events on the peptide. […]
varying concentrations (0-10 µM). […] The fluorescence intensity was measured with excitation = 340 nm and emission = 490 nm on a TECAN Infinite M1000Pro. […]
The set up and analysis for IC50 of L-Leu NOG against KDM4A F185A enzyme was similar to that described in the coupled fluorescence assay section, but adjusted to function as an end point assay. […]
and varying concentration of compounds (NOGs 6, 9 and 10) and a substrate cocktail (200 µM 2OG and 60 µM H3K9me3 peptide). Different concentrations of NOG 6 were measured at one time point ranging for 1-5 hours. For 9 and 10, the same set-up remained, but enzymatic activity was measured via MALDI-TOF analysis, and relative activity and inhibition was calculated for different NOG concentrations as described above. […]
and analyzed on Bruker FlexAnalysis software. The percent demethylated peptide was calculated by first multiplying the K27me1 peak by 2 and the K27me0 peak by 3 to account for the multiple

wild type KDM4A [2] = molecular target: T1, wild type KDM4A; experiment: as above; type: biochemical; details: H3K9me3 peptide, 200 µM 2OG, fixed concentration of NOG analogue
From the text: To develop an appropriate inhibitor, we selected N-oxalyl glycine (NOG, 2) scaffold because of its structural similarity with 2OG and the ability to inhibit 2OG-utilizing enzymes including KDMs (Figure 1C).[29]−[31] Substituting −CH2– at C3 of 2OG with −NH– in NOG prevents its oxidative decarboxylation by KDMs, making the inhibitor cofactor-competitive. […] We synthesized a panel of eight NOG analogues (3–10), derived from L-amino acids, carrying varied steric substituents at C4, with the reasoning that a bulky substituent at C4 would selectively fit into the expanded pocket of F185A over wild type KDM4A (Figures 2B and S1–S6, Schemes S1 and S2). The inhibitory effect of each compound was determined based on the extent of enzyme-catalyzed demethylation of a canonical peptide substrate corresponding to the N-terminus of histone 3 carrying trimethylated lysine at position 9 (H3K9me3). […] Such orthogonal inhibition of the engineered demethylase constitutes a powerful chemical probe to study the functions of a specific member of an enzyme family without issues of off-target activity.
as §1
8. […]
2 mM L-ascorbic acid with a total assay volume of 10 µL. Fe(II) supplement and L-ascorbic acid
Lastly, the 2OG and peptide were
positive mode and analyzed on Bruker FlexAnalysis software. The percent demethylated peptide
as §2

[3] = substrate: O=C(O)CCC(=O)C(=O)O; experiment: purified protein, by the assay type; details: other: saturating H3K9me3 peptide; pH 8.0; 37.0 °C

## O=C(O)CCC(=O)C(=O)O [compound 1, 2-oxoglutarate]
Wild type KDM4A [1]; listed as 2OG
  kcat: 0.26 ± 0.01 min^–1
Wild type KDM4A [1]; listed as 2OG 1
  kcat: 0.2562±0.0072 min^–1

## O=C(O)C(=O)N[C@@H](Cc1ccccc1)C(=O)O [compound 9, phenylalanine NOG]
KDM4A-F185A
  IC50: 28.7 ± 1.3 µM

## O=C(O)C(=O)N[C@@H](CC1CCCCC1)C(=O)O [compound 10, cyclohexyl NOG]
KDM4A-F185A
  IC50: 4.7 ± 1.7 µM

## O=C(O)CNC(=O)C(=O)O [compound 2, N-oxalyl glycine, reference compound]
Wild type KDM4A [2]
  inhibition of wild type KDM4A demethylase activity (MALDI-MS): weakly inhibited
KDM4A-F185A; H3K9me3 peptide, 200 µM 2OG, fixed concentration of NOG analogue
  inhibition of F185A mutant demethylase activity (MALDI-MS): weakly inhibited

B1: wild type KDM4A (Homo sapiens) (protein)
chain: EKHVDEWNIGRLRTILDLVEKESGITIEGVNTPYLYFGMWKTSFAWHTEDMDLYSINYLHFGEPKSWYSVPPEHGKRLERLAKGFFPGSAQSCEAFLRHKMTLISPLMLKKYGIPFDKVTQEAGEFMITFPYGYHAGFNHGFNCAESTNFATRRWIEYGKQAVLCSC
[3]
  Km: 7.52 ± 1.2 µM

B2: KDM4A-F185A (Homo sapiens; F185A) (protein)
chain: EKHVDEWNIGRLRTILDLVEKESGITIEGVNTPYLYFGMWKTSAAWHTEDMDLYSINYLHFGEPKSWYSVPPEHGKRLERLAKGFFPGSAQSCEAFLRHKMTLISPLMLKKYGIPFDKVTQEAGEFMITFPYGYHAGFNHGFNCAESTNFATRRWIEYGKQAVLCSC
[3]
  Km: 52 ± 11 µM

Source: publication PMC11783601, “Analogue-Sensitive Inhibition of Histone Demethylases Uncovers Member-Specific Function in Ribosomal Protein Synthesis” (Journal of the American Chemical Society, 2025)
